Measured values taken from US10179770B2, “Quinolines derivatives as novel anticancer agents” (GENOSCIENCE PHARMA, priority 2013, dated 2019).
Structures can show the parent of a compound that is named as a salt.

Key:
[1] = Encapsulation efficiency of XIX-2 in PLGA-PLGAPEG nanoparticules (HPLC); format: physicochemical
Procedure: According to the general procedure described elsewhere (see for example Kumar, K. et al. J. Controlled Release 2013 (171) pp 208-215 and Danhier, F. et al. Int. J. Pharm. 2010 (392) pp 20-28) a nanoparticule PLGA-PLGAPEG (70/30, w/w) formulation of compound XIX-2 was prepared. Briefly, XIX-2 loaded PLGA (L:G 50:50, Mw 7,000-17,000, acid terminated) and PLGA-PEG (L:G 50:50, 15% of PEG, PLGA Mw 28,000; PEG Mw 5,000) nanoparticles were prepared by O/W emulsion-solvent evaporation technique. 35 mg of PLGA polymer and 15 mg of PLGA-PEG polymer was dissolved in 1 ml of a solution of XIX-2 in dichloromethane (10 mg/ml) and vortexed to obtain a uniform PLGA-PLGAPEG solution. Then, 2 ml of a 1% sodium cholate aqueous solution was added and the resulting biphasic system was sonicated (Branson sonifier, USA) at 70 W for 15 s. This emulsion was added dropwise to 100 ml of a 1% sodium cholate aqueous solution at 37° C. and stirred at 600 rpm for 1 h. The nanoparticle suspension was then washed twice in distilled water by centrifugation (Avanti-JE centrifuge, Beckman coulter, USA) for 60 min at 10,000 t·min^−1 and 4° C. Supernatants were collected to evaluate encapsulation efficiency of XIX-2. Empty nanoparticles were prepared with the same procedure except the addition of XIX-2 during the preparation of the formulation. The particles can be stored in solution at +4° C. or then freeze dried (Labconco, USA) and stored at 4° C. until further use.
Encapsulation efficiency estimated the amount of XIX-2 encapsulated in PLGA-PLGAPEG nanoparticules. Supernatants were used to measure the non-encapsulated XIX-2. Nanoparticules were dissolved in 1 ml of mobile phase to evaluate the encapsulated XIX-2. An HPLC system (Waters Breeze) with a diode array detector and multiple wavelength detector was used for the quantification of XIX-2 in supernatants and nanoparticles. […]
The coefficients of variation (CV) for intra- and inter-assay measurements were within 5%. The encapsulation efficiency of XIX-2 is given by [XIX-2 used−XIX-2 non-encapsulated)/XIX-2 used]×100 and XIX-2 recovery was calculated.

[2] = system: HCT-116; experiment: Cell proliferation assay at 10 μM; format: cell-based; conditions: Homo sapiens, HCT-116, 72 h, read-out: Cell viability observed at 10 μM
Outline: (§1)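 A375 and HCT-116 cells grown in DMEM with 10% FBS, seeded overnight, then exposed to compound at 10 μM for 72 h at 37 °C, 5% CO2 against vehicle control. Outgrowth read by MTS (CellTiter 96 Aqueous One) absorbance; each point the mean of two replicates.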

[3] = system: MOLM-14; experiment: Cell proliferation assay at 10 μM; format: cell-based, human; conditions: Homo sapiens, MOLM-14, 72 h, read-out: Cell viability observed at 10 μM
Outline: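 MOLM-14 suspension cells (30,000/well, MEM alpha with 10% FBS) treated with compound at 10 μM, constant vehicle percentage, for 72 h at 37° C. Outgrowth measured by sulforhodamine B absorbance; each point is mean of two replicates.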

[4] = system: SK-MEL-28; experiment: EC50 determination in cancer cell lines; format: cell-based; conditions: Homo sapiens, 72 h
Procedure: (§2) Compounds were added at different concentrations to each well, and cell cultures were incubated for 72 h. Vehicle (DMSO or H2O) was used as a control, and all compounds were tested in a constant percentage of vehicle. Cell outgrowth was measured using for adherent cells CellTiter […] Aqueous One Solution Cell Proliferation Assay (Promega) and for cell suspension, Sulforhodamine B colorimetric assay as described in Vichai et al. (Vichai, V. and Kirtikara, K. Nat. Protoc. 2006 (1) 1112-1116). Absorbance was measured using an Infinite F200 Pro or Sunrise TECAN plate reader.
(§3) The human melanoma cell line A375, colorectal carcinoma cell line HCT-116, hepatocellular carcinoma cell line HepG2 were cultured in Dulbecco's modified Eagle's medium supplemented with 10% fetal bovine serum and 1% Penicillin-Streptomycin. The human melanoma cell lines SK-MEL-28 and SK-MEL-5 were cultured in Minimum Essential Medium. The colorectal carcinoma cell lines HT-29 and Colo205 were respectively cultured in Mc Coy's and RPMI media. The human leukemia cell lines MV4-11 and KG-1 were cultured in Iscove's Modified Dulbecco's Media. The human leukemia cell line MOLM-14 was cultured in Minimum Essential Medium Alpha Medium supplemented with 10% Fetal Bovine Serum and 1% Penicillin-Streptomycin All culture media were supplemented with 10% fetal bovine serum and 1% Penicillin-Streptomycin except for MV4-11 cell line 20% fetal bovine serum and 1% Penicillin-Streptomycin. All the cell lines were maintained at 37° C. with 5% C02.
(§4) Briefly, adherent cells, A375, HCT-116, HepG2, SK-MEL-28, SK-MEL-5, HT-29 and Colo205 cells were respectively plated at 800, 5,000, 7,000, 2,500, 3,000-5,000, 5,000 or 5,000 cells per well onto 96-well plates in 90 μL of media per well and were allowed to grow overnight before the assay. For MV4-11 and KG-1 cells that grow in suspension, 40,000-60,000 cells were plated onto 96-well plates immediately before the assay. MOLM-14 cell line, that grow in suspension, 30,000 cells were plated onto 96-well plates immediately before the assay.
(§5) The cell growth measure was the same as described in example 51.
(§6) The experimental data are analyzed using a computer program, Graphpad Prism (GraphPad Software, Inc. La Jolla, Calif.) and EC50 values were determined as the dose of compound required to reduce absorbance values to 50% of the signal obtained for vehicle treated cell cultures and were a mean of at least two independent experiments except for EC50 values with (*) where […].

[5] = system: MOLM-14; experiment: EC50 determination in cancer cell lines; format: cell-based; conditions: Homo sapiens, 72 h
Procedure: as §2, §3, §4, §5, §6

[6] = system: KG-1; experiment: EC50 determination in cancer cell lines; format: cell-based; conditions: Homo sapiens, 72 h
Procedure: as §2, §3, §4, §5, §6

[7] = system: MV4-11; experiment: EC50 determination in cancer cell lines; format: cell-based; conditions: Homo sapiens, 72 h
Procedure: as §2, §3, §4, §5, §6

[8] = system: Colo205; experiment: EC50 determination in cancer cell lines; format: cell-based; conditions: Homo sapiens, COLO 205, 72 h, * n>2
Procedure: as §2, §3, §4, §5, §6

[9] = system: SK-MEL-5; experiment: EC50 determination in cancer cell lines; format: cell-based; conditions: Homo sapiens, 72 h
Procedure: as §2, §3, §4, §5, §6

[10] = system: HT-29; experiment: EC50 determination in cancer cell lines; format: cell-based; conditions: Homo sapiens, 72 h, * n>2
Procedure: as §2, §3, §4, §5, §6

[11] = system: HCT-116; experiment: EC50 determination in cancer cell lines; format: cell-based, human; conditions: Homo sapiens, HCT-116, 72 h
Procedure: as §2, §3
Briefly, adherent cells, A375, HCT-116, HepG2, SK-MEL-28, SK-MEL-5, HT-29 and Colo205 cells were respectively plated at 800, 5,000, 7,000, 2,500, 3,000-5,000, 5,000 or 5,000 cells per well onto 96-well plates in 90 μL of media per well and were allowed to grow overnight before the assay. For MV4-11 and KG-1 cells that grow in suspension, 40,000-60,000 cells were plated onto 96-well plates immediately before the assay. MOLM-14 cell line, that grow in suspension, 30,000 cells were plated onto 96-well plates immediately before the assay. […]
as §6

[12] = system: A-375; experiment: EC50 determination in cancer cell lines; format: cell-based, human; conditions: Homo sapiens, A-375, 72 h
Procedure: as §2, §3, §4, §5, §6

[13] = system: HepG2; experiment: EC50 determination in cancer cell lines; format: cell-based, human; conditions: Homo sapiens, HepG2, 72 h
Procedure: as §2, §3, §4, §5, §6

[14] = system: A375; experiment: Cell proliferation assay at 10 μM; format: cell-based, human; conditions: Homo sapiens, A-375, 72 h, read-out: Cell viability observed at 10 μM
Outline: as §1

[15] = system: B16F10; experiment: CellTiter-Glo cell viability assay (example 57); format: cell-based, human; conditions: Mus musculus, B16-F10; B16F10 (Melanoma); Cell Titer-Glo; 72 h
[16] = system: PBMC Healthy voluntary donor; experiment: Cell growth inhibition assay, PBMC of healthy donors; format: cell-based, human; conditions: Homo sapiens, PBMC
Procedure: (§7) Each compound was added at different concentrations (combinations of six concentrations) to each well, and cell cultures were incubated for 48 h. Vehicle (H2O) was used as a control, and all compounds were tested in a constant percentage of vehicle. Cell outgrowth was measured using the CellTiter-Glo luminescent cell viability assay as described by the manufacturer (Promega, Ref G7571 Madison, Wis., USA) using a Centro (Berthold, France) plate reader. In each experiment, each point represents the average of triplicates in cell culture. The experimental data are analyzed using a computer program, Graphpad Prism (GraphPad Software, Inc.

[17] = system: patient derived acute myeloid leukemia (AML) cell lines; experiment: Cell growth inhibition assay, patient derived AML cells; format: cell-based, human; conditions: Homo sapiens, 48 h
Procedure: as §7, with “The patient derived acute myeloid leukemia (AML) cells were obtained after written informed consent under the Institut Paoli Calmette (IPC) institutional review board approval and under the strict compliance of the Helsinki declaration on medical research involving human subjects. […] Each” for “Each”

Structure (SMILES)	viability at 10 µM [2]	viability at 10 µM [3]	EC50 [4]	EC50 [5]	EC50 [6]	EC50 [7]	EC50 [8]	EC50 [9]	EC50 [10]	EC50 [11]	EC50 [12]	EC50 [13]	viability at 10 µM [14]	further results
CCN(CC)C1CCN(C(C)c2cc(-c3ccccc3)nc3ccccc23)CC1 (stereo not shown) [XIX-2, 2-phenyl-4-{1-[4-(N,N-diethylamino)-piperidin-1-yl]-eth-1-yl}quinoline]														Concentration of XIX-2 in nanoparticules dispersion ([1]; PLGA-PLGAPEG (70/30, w/w) nanoparticules, HPLC): 3210 µM; Loading ([1]; PLGA-PLGAPEG nanoparticules, [XIX-2 encapsulated/PLGA-PLGAPEG used] × 100): 2.5%; Encapsulation efficiency ([1]; PLGA-PLGAPEG nanoparticules; [XIX-2 used − XIX-2 nonencapsulated)/XIX-2 used] × 100): 9.4%
Clc1ccc2c(NC3CCN(Cc4ccccc4)CC3)cc(-c3ccccc3)nc2c1 [XXVIII-2, 7-chloro-2-phenyl-4-[(N-benzylpiperidin-4-yl)-amino]quinoline hydrochloride salt]	< 20%	< 20%	7 µM	10 µM	10 µM	5 µM	9 µM	9 µM	13 µM	12 µM	9 µM	26 µM	< 20%	
Clc1ccc2c(CNC3CCN(Cc4ccccc4)CC3)cc(-c3ccccc3)nc2c1 [XXXIII-2, 7-chloro-2-phenyl-4-[(N-benzyl-piperidin-4-yl)aminomethyl]quinoline hydrochloride salt]	20 to 40%	40 to 60%	6 µM	9 µM	8 µM	5 µM	9 µM	6 µM	14 µM	13 µM	9 µM	16 µM	40 to 60%	
COc1cccc2c1C(=O)c1c(O)c3c(c(O)c1C2=O)C[C@@](O)(C(=O)CO)C[C@@H]3O[C@H]1C[C@H](N)[C@H](O)[C@H](C)O1 [Doxorubicine, doxorubicin]														EC50 [15]: 0.2 µM
CC(C)(C)NC1CCN(c2cc(-c3ccc(Cl)c(Cl)c3)nc3ccccc23)CC1 [XIV-8, 2-(3,4-dichloro-phenyl)-4-(4-N-tert-butylamino-piperidin-1-yl)quinoline dihydrochloride]	< 20%	< 20%	4 µM	5 µM	4 µM	4 µM		6 µM		5 µM	6 µM		< 20%	EC50 ([16]; PBMC Healthy voluntary donor 1): 31 µM; EC50 ([16]; PBMC Healthy voluntary donor 2): 14 µM; EC50 ([17]; Patient 3, subtype Tri8): 8 µM; EC50 ([17]; Patient 8, subtype FLT3−): 25 µM; EC50 ([17]; Patient 9, subtype FLT3+): 40 µM; EC50 ([17]; Patient 10, subtype Inv 3): 20 µM; EC50 ([17]; Patient 12, subtype 5 & 7): > 40 µM; EC50 ([17]; Patient 13, subtype MLL): > 40 µM; EC50 ([17]; Patient 16, subtype Inv 3): 17 µM
